Assay results from ChEMBL document CHEMBL1201862, “PubChem BioAssay data set” (2004).
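Values below derive from 48-hour exposures of cells grown in 96-well plates, with endpoints linearly interpolated between the two concentrations bracketing the appropriate inhibition level. GI50 is the concentration that inhibits growth by half.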 The source made the active and inactive calls. Rule as the data show it: active = GI50 up to about 1.1 µM and inactive = higher.

What was measured:
Test in all cases: inhibition of tumour cell growth, NCI panel, 48 h
EKVX = system: EKVX
LOX IMVI = system: LOX IMVI
CCRF-CEM = system: CCRF-CEM
RPMI-8226 = system: RPMI-8226
MDA-MB-231 = system: MDA-MB-231
UACC-257 = system: UACC-257
OVCAR-4 = system: OVCAR-4
CAKI-1 = system: CAKI-1
SNB-75 = system: SNB-75
OVCAR-5 = system: OVCAR-5
A498 = system: A498
IGROV-1 = system: IGROV-1
NCI-H226 = system: NCI-H226
ACHN = system: ACHN
786-0 = system: 786-0
NCI-H460 = system: NCI-H460
RXF 393 = system: RXF 393
SK-MEL-5 = system: SK-MEL-5
M14 = system: M14
Malme-3M = system: Malme-3M
HCT-116 = system: HCT-116
COLO 205 = system: COLO 205
SR = system: SR
PC-3 = system: PC-3
UACC-62 = system: UACC-62
T47D = system: T47D
SK-MEL-28 = system: SK-MEL-28
SW-620 = system: SW-620
SF-268 = system: SF-268
HOP-92 = system: HOP-92
MDA-MB-435 = system: MDA-MB-435
MDA-N = system: MDA-N
NCI/ADR-RES = system: NCI/ADR-RES
SN12C = system: SN12C
HCC 2998 = system: HCC 2998
BT-549 = system: BT-549
TK-10 = system: TK-10
HOP-62 = system: HOP-62
UO-31 = system: UO-31
MOLT-4 = system: MOLT-4
SK-MEL-2 = system: SK-MEL-2
SK-OV-3 = system: SK-OV-3
NCI-H522 = system: NCI-H522
HT-29 = system: HT-29
SF-295 = system: SF-295
A549 = system: A549
SNB-19 = system: SNB-19
U-251 = system: U-251
OVCAR-8 = system: OVCAR-8
Hs-578T = system: Hs-578T
HL-60 = system: HL-60
K562 = system: K562
HCT-15 = system: HCT-15
NCI-H23 = system: NCI-H23
OVCAR-3 = system: OVCAR-3
MCF7 = system: MCF7
DU-145 = system: DU-145
KM12 = system: KM12
SF-539 = system: SF-539
DMS-273 = system: DMS-273
HOP-18 = system: HOP-18
XF498 = system: XF498
M19-MEL = system: M19-MEL
DLD-1 = system: DLD-1
LXFL 529 = system: LXFL 529
KM-20L2 = system: KM-20L2
DMS-114 = system: DMS-114

`O=C1CC[N+]2=Cc3ccccc3O[B-]2(c2ccccc2)O1` (centres undefined) was tested, and the GI50 (EKVX) was > 100 µM (inactive), the GI50 (LOX IMVI) was > 100 µM (inactive) and the GI50 (CCRF-CEM) was > 100 µM (inactive). For the same molecule, the GI50 (RPMI-8226) was > 100 µM (inactive), the GI50 (MDA-MB-231) was > 100 µM (inactive) and the GI50 (UACC-257) was > 100 µM (inactive). For the same molecule, the GI50 (OVCAR-4) was > 100 µM (inactive), the GI50 (CAKI-1) was > 100 µM (inactive) and the GI50 (SNB-75) was 67.1 µM (inactive). The GI50 (OVCAR-5) was > 100 µM (inactive), the GI50 (A498) was > 100 µM (inactive) and the GI50 (IGROV-1) was > 100 µM (inactive). The GI50 (NCI-H226) was > 100 µM (inactive), the GI50 (ACHN) was > 100 µM (inactive) and the GI50 (786-0) was > 100 µM (inactive). The GI50 (NCI-H460) was > 100 µM (inactive), the GI50 (RXF 393) was > 100 µM (inactive) and the GI50 (SK-MEL-5) was 97.7 µM (inactive). The GI50 (M14) was > 100 µM (inactive), the GI50 (Malme-3M) was > 100 µM (inactive) and the GI50 (HCT-116) was > 100 µM (inactive). For the same molecule, the GI50 (COLO 205) was > 100 µM (inactive), the GI50 (SR) was > 100 µM (inactive) and the GI50 (PC-3) was > 100 µM (inactive). For the same molecule, the GI50 (UACC-62) was > 100 µM (inactive), the GI50 (T47D) was > 100 µM (inactive) and the GI50 (SK-MEL-28) was > 100 µM (inactive). The GI50 (SW-620) was > 100 µM (inactive), the GI50 (SF-268) was > 100 µM (inactive) and the GI50 (HOP-92) was 21.5 µM (inactive). The GI50 (MDA-MB-435) was > 100 µM (inactive), the GI50 (MDA-N) was > 100 µM (inactive) and the GI50 (NCI/ADR-RES) was > 100 µM (inactive). For the same molecule, the GI50 (SN12C) was > 100 µM (inactive), the GI50 (HCC 2998) was > 100 µM (inactive) and the GI50 (BT-549) was > 100 µM (inactive). For the same molecule, the GI50 (TK-10) was > 100 µM (inactive), the GI50 (HOP-62) was > 100 µM (inactive) and the GI50 (UO-31) was > 100 µM (inactive). For the same molecule, the GI50 (MOLT-4) was > 100 µM (inactive), the GI50 (SK-MEL-2) was > 100 µM (inactive) and the GI50 (SK-OV-3) was > 100 µM (inactive). For the same molecule, the GI50 (NCI-H522) was > 100 µM (inactive), the GI50 (HT-29) was > 100 µM (inactive) and the GI50 (SF-295) was > 100 µM (inactive). For the same molecule, the GI50 (A549) was > 100 µM (inactive), the GI50 (SNB-19) was > 100 µM (inactive) and the GI50 (U-251) was > 100 µM (inactive). For the same molecule, the GI50 (OVCAR-8) was > 100 µM (inactive), the GI50 (Hs-578T) was > 100 µM (inactive) and the GI50 (HL-60) was 89.9 µM (inactive). The GI50 (K562) was > 100 µM (inactive), the GI50 (HCT-15) was > 100 µM and the GI50 (NCI-H23) was > 100 µM (inactive). For the same molecule, the GI50 (OVCAR-3) was > 100 µM (inactive), the GI50 (MCF7) was > 100 µM (inactive) and the GI50 (DU-145) was > 100 µM (inactive). For the same molecule, the GI50 (KM12) was > 100 µM (inactive) and the GI50 (SF-539) was > 100 µM (inactive).

With `C/C(=N/NC(=O)C[N+](C)(C)C)C(CN(C)C)C(=O)Nc1ccccc1` (centres undefined) the GI50 (EKVX) was > 100 µM (inactive), the GI50 (LOX IMVI) was > 100 µM (inactive) and the GI50 (CCRF-CEM) was > 100 µM (inactive). For the same molecule, the GI50 (DMS-273) was > 100 µM (inactive), the GI50 (UACC-257) was > 100 µM (inactive) and the GI50 (OVCAR-4) was > 100 µM (inactive). For the same molecule, the GI50 (CAKI-1) was > 100 µM (inactive), the GI50 (SNB-75) was > 100 µM (inactive) and the GI50 (OVCAR-5) was > 100 µM (inactive). For the same molecule, the GI50 (A498) was > 100 µM (inactive), the GI50 (IGROV-1) was > 100 µM (inactive) and the GI50 (NCI-H226) was > 100 µM (inactive). The GI50 (ACHN) was > 100 µM (inactive), the GI50 (786-0) was > 100 µM (inactive) and the GI50 (NCI-H460) was > 100 µM (inactive). The GI50 (HOP-18) was > 100 µM (inactive), the GI50 (RXF 393) was > 100 µM (inactive) and the GI50 (SK-MEL-5) was > 100 µM (inactive). For the same molecule, the GI50 (M14) was > 100 µM (inactive), the GI50 (Malme-3M) was > 100 µM (inactive) and the GI50 (HCT-116) was > 100 µM (inactive). The GI50 (COLO 205) was > 100 µM (inactive), the GI50 (SR) was > 100 µM (inactive) and the GI50 (UACC-62) was > 100 µM (inactive). The GI50 (SK-MEL-28) was > 100 µM (inactive), the GI50 (SW-620) was > 100 µM (inactive) and the GI50 (SF-268) was > 100 µM (inactive). For the same molecule, the GI50 (XF498) was > 100 µM (inactive), the GI50 (M19-MEL) was > 100 µM (inactive) and the GI50 (SN12C) was > 100 µM (inactive). For the same molecule, the GI50 (HCC 2998) was 96.8 µM (inactive), the GI50 (DLD-1) was > 100 µM (inactive) and the GI50 (TK-10) was > 100 µM (inactive). For the same molecule, the GI50 (HOP-62) was > 100 µM (inactive), the GI50 (UO-31) was > 100 µM (inactive) and the GI50 (MOLT-4) was > 100 µM (inactive). For the same molecule, the GI50 (SK-MEL-2) was > 100 µM (inactive), the GI50 (LXFL 529) was > 100 µM (inactive) and the GI50 (KM-20L2) was > 100 µM (inactive). The GI50 (SK-OV-3) was > 100 µM (inactive), the GI50 (NCI-H522) was > 100 µM (inactive) and the GI50 (HT-29) was > 100 µM (inactive). For the same molecule, the GI50 (SF-295) was > 100 µM (inactive), the GI50 (A549) was > 100 µM (inactive) and the GI50 (SNB-19) was > 100 µM (inactive). The GI50 (U-251) was > 100 µM (inactive), the GI50 (OVCAR-8) was > 100 µM (inactive) and the GI50 (HL-60) was > 100 µM (inactive). The GI50 (K562) was > 100 µM (inactive), the GI50 (DMS-114) was > 100 µM (inactive) and the GI50 (HCT-15) was > 100 µM. For the same molecule, the GI50 (NCI-H23) was > 100 µM (inactive), the GI50 (OVCAR-3) was > 100 µM (inactive) and the GI50 (KM12) was > 100 µM (inactive). For the same molecule, the GI50 (SF-539) was > 100 µM (inactive).
